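Five compound concentrations were applied to cells in 96-well plates for 48 hours; endpoints were derived by simple linear interpolation of the resulting dose-response curve. GI50 = concentration required for 50% inhibition of growth.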 Active and inactive are the calls of the source. No stated cut-off is given here; in the data, active = GI50 up to about 1.1 µM and inactive = higher.
Assays:
Assay in all cases: growth of human tumour cells (NCI), 48 h
MDA-MB-231 = tested on: MDA-MB-231
CAKI-1 = tested on: CAKI-1
OVCAR-5 = tested on: OVCAR-5
T47D = tested on: T47D
HL-60 = tested on: HL-60
UACC-62 = tested on: UACC-62
MDA-N = tested on: MDA-N
RPMI-8226 = tested on: RPMI-8226
786-0 = tested on: 786-0
SK-OV-3 = tested on: SK-OV-3
A498 = tested on: A498
OVCAR-8 = tested on: OVCAR-8
IGROV-1 = tested on: IGROV-1
SNB-19 = tested on: SNB-19
CCRF-CEM = tested on: CCRF-CEM
MCF7 = tested on: MCF7
SN12C = tested on: SN12C
SF-268 = tested on: SF-268
M14 = tested on: M14
SW-620 = tested on: SW-620
MDA-MB-435 = tested on: MDA-MB-435
NCI-H460 = tested on: NCI-H460
NCI-H23 = tested on: NCI-H23
HCT-15 = tested on: HCT-15
RXF 393 = tested on: RXF 393
K562 = tested on: K562
TK-10 = tested on: TK-10
HCC 2998 = tested on: HCC 2998
SK-MEL-28 = tested on: SK-MEL-28
NCI/ADR-RES = tested on: NCI/ADR-RES
HCT-116 = tested on: HCT-116
SF-295 = tested on: SF-295
ACHN = tested on: ACHN
A549 = tested on: A549
PC-3 = tested on: PC-3
SNB-75 = tested on: SNB-75
U-251 = tested on: U-251
NCI-H226 = tested on: NCI-H226
SR = tested on: SR
MOLT-4 = tested on: MOLT-4
DU-145 = tested on: DU-145
OVCAR-3 = tested on: OVCAR-3
SK-MEL-5 = tested on: SK-MEL-5
SF-539 = tested on: SF-539
HT-29 = tested on: HT-29
UO-31 = tested on: UO-31
HOP-92 = tested on: HOP-92
UACC-257 = tested on: UACC-257
HOP-62 = tested on: HOP-62
BT-549 = tested on: BT-549
COLO 205 = tested on: COLO 205
SK-MEL-2 = tested on: SK-MEL-2
NCI-H522 = tested on: NCI-H522
OVCAR-4 = tested on: OVCAR-4
KM12 = tested on: KM12
Hs-578T = tested on: Hs-578T
LOX IMVI = tested on: LOX IMVI
EKVX = tested on: EKVX
Malme-3M = tested on: Malme-3M

CCCC(=O)Nc1cc(/C=C/C(=O)N2CC(CCl)c3c2cc([N+](=O)[O-])c2ccccc32)n(C)c1 (stereo not drawn)
GI50 (MDA-MB-231): > 100 µM (inactive) | GI50 (CAKI-1): 47.1 µM (inactive) | GI50 (OVCAR-5): > 100 µM (inactive) | GI50 (T47D): > 100 µM (inactive) | GI50 (HL-60): 0.767 µM (active) | GI50 (UACC-62): 8.38 µM (inactive) | GI50 (MDA-N): > 100 µM (inactive) | GI50 (RPMI-8226): 0.579 µM (active) | GI50 (786-0): > 60.8 µM (inactive) | GI50 (SK-OV-3): > 100 µM (inactive) | GI50 (A498): 8.49 µM (inactive) | GI50 (OVCAR-8): 16.5 µM (inactive) | GI50 (IGROV-1): > 100 µM (inactive) | GI50 (SNB-19): > 100 µM (inactive) | GI50 (CCRF-CEM): 3.84 µM (inactive) | GI50 (MCF7): 13.8 µM (inactive) | GI50 (SN12C): > 100 µM (inactive) | GI50 (SF-268): > 100 µM (inactive) | GI50 (M14): > 100 µM (inactive) | GI50 (SW-620): > 100 µM (inactive) | GI50 (MDA-MB-435): > 100 µM (inactive) | GI50 (NCI-H460): 7.57 µM (inactive) | GI50 (NCI-H23): 1 µM (active) | GI50 (HCT-15): > 4.65 µM | GI50 (RXF 393): 59.4 µM (inactive) | GI50 (K562): 0.738 µM (active) | GI50 (TK-10): > 100 µM (inactive) | GI50 (HCC 2998): 14.5 µM (inactive) | GI50 (SK-MEL-28): > 100 µM (inactive) | GI50 (NCI/ADR-RES): 8.93 µM (inactive) | GI50 (HCT-116): 11.9 µM (inactive) | GI50 (SF-295): > 52.1 µM (inactive) | GI50 (ACHN): 1.32 µM (inactive) | GI50 (A549): 8.89 µM (inactive) | GI50 (PC-3): 3.73 µM (inactive) | GI50 (SNB-75): 6.12 µM (inactive) | GI50 (U-251): > 63.5 µM (inactive) | GI50 (NCI-H226): > 100 µM (inactive) | GI50 (SR): 0.796 µM (active) | GI50 (MOLT-4): 3.01 µM (inactive) | GI50 (DU-145): 0.632 µM (active) | GI50 (OVCAR-3): > 100 µM (inactive) | GI50 (SK-MEL-5): > 47.3 µM (inactive) | GI50 (SF-539): 56.1 µM (inactive) | GI50 (HT-29): > 100 µM (inactive) | GI50 (UO-31): > 75.3 µM (inactive) | GI50 (HOP-92): > 100 µM (inactive) | GI50 (UACC-257): > 100 µM (inactive) | GI50 (HOP-62): > 35.1 µM (inactive) | GI50 (BT-549): > 73.3 µM (inactive) | GI50 (COLO 205): > 100 µM (inactive) | GI50 (SK-MEL-2): > 100 µM (inactive) | GI50 (NCI-H522): > 100 µM (inactive) | GI50 (OVCAR-4): > 100 µM (inactive)

COCn1cnc2c(=O)nc(SC)n(-c3ccccc3)c21
GI50 (MDA-MB-231): > 100 µM (inactive) | GI50 (CAKI-1): > 100 µM (inactive) | GI50 (OVCAR-5): > 100 µM (inactive) | GI50 (T47D): > 100 µM (inactive) | GI50 (KM12): > 100 µM (inactive) | GI50 (HL-60): > 100 µM (inactive) | GI50 (UACC-62): > 100 µM (inactive) | GI50 (Hs-578T): > 100 µM (inactive) | GI50 (MDA-N): > 100 µM (inactive) | GI50 (RPMI-8226): > 100 µM (inactive) | GI50 (786-0): > 100 µM (inactive) | GI50 (SK-OV-3): > 100 µM (inactive) | GI50 (A498): > 100 µM (inactive) | GI50 (OVCAR-8): > 100 µM (inactive) | GI50 (IGROV-1): > 100 µM (inactive) | GI50 (SNB-19): > 100 µM (inactive) | GI50 (CCRF-CEM): > 100 µM (inactive) | GI50 (MCF7): > 100 µM (inactive) | GI50 (SN12C): > 100 µM (inactive) | GI50 (SF-268): > 100 µM (inactive) | GI50 (M14): > 100 µM (inactive) | GI50 (SW-620): > 100 µM (inactive) | GI50 (MDA-MB-435): > 100 µM (inactive) | GI50 (LOX IMVI): > 100 µM (inactive) | GI50 (NCI-H23): > 100 µM (inactive) | GI50 (HCT-15): > 100 µM | GI50 (EKVX): > 100 µM (inactive) | GI50 (RXF 393): > 100 µM (inactive) | GI50 (K562): > 100 µM (inactive) | GI50 (TK-10): > 100 µM (inactive) | GI50 (HCC 2998): > 100 µM (inactive) | GI50 (NCI/ADR-RES): > 100 µM (inactive) | GI50 (HCT-116): > 100 µM (inactive) | GI50 (Malme-3M): > 100 µM (inactive) | GI50 (SF-295): > 100 µM (inactive) | GI50 (ACHN): > 100 µM (inactive) | GI50 (A549): > 100 µM (inactive) | GI50 (SNB-75): > 100 µM (inactive) | GI50 (NCI-H226): > 100 µM (inactive) | GI50 (MOLT-4): > 100 µM (inactive) | GI50 (DU-145): > 100 µM (inactive) | GI50 (OVCAR-3): > 100 µM (inactive) | GI50 (SK-MEL-5): > 100 µM (inactive) | GI50 (SF-539): > 100 µM (inactive) | GI50 (HT-29): > 100 µM (inactive) | GI50 (UO-31): > 100 µM (inactive) | GI50 (HOP-92): > 100 µM (inactive) | GI50 (UACC-257): > 100 µM (inactive) | GI50 (HOP-62): > 100 µM (inactive) | GI50 (BT-549): > 100 µM (inactive) | GI50 (COLO 205): > 100 µM (inactive) | GI50 (SK-MEL-2): > 100 µM (inactive) | GI50 (NCI-H522): > 100 µM (inactive) | GI50 (OVCAR-4): > 100 µM (inactive)
